Assay [1] has as its system Botrytis cinerea. In words: Antifungal activity against Botryotinia fuckeliana infected in grape assessed as lesion diameter at 1 mg/ml applied by dipping 24 hr prior to infection measured after 4 days at 24 degC (reference value: 30.56 mm). In kind it is functional.
The subject of assay [2] is Botrytis cinerea. In words: Antifungal activity against Botryotinia fuckeliana assessed as mycelial growth at 3 mg/ml after 4 days (reference value: 85 mm). In kind it is functional.
Assay [3] has as its system Botrytis cinerea. In words: Antifungal activity against Botryotinia fuckeliana assessed as mycelial growth at 2 mg/ml after 4 days (reference value: 85 mm). The assay is classed as functional.
The test system of assay [4] is Botrytis cinerea. Briefly: Growth inhibition of Botryotinia fuckeliana at 1 mg/ml after 4 days relative to control. The assay is classed as functional. Particulars: 96 h, read-out: GI.
Assay [5] has as its system Botrytis cinerea. Briefly: Antifungal activity against Botryotinia fuckeliana infected grape assessed as lesion diameter at 3 mg/ml applied by dipping 24 hr prior to infection measured after 4 days at 24 degC (reference value: 30.56 mm). The assay is classed as functional.
Assay [6] concerns Botrytis cinerea. In words: Antifungal activity against Botryotinia fuckeliana infected grape assessed as decrease in lesion diameter at 3 mg/ml applied by dipping 24 hr prior to infection measured after 4 days at 4 degC relative to untreated-control. In kind it is functional, organism-based.
The test system of assay [7] is Botrytis cinerea. In words: Antifungal activity against Botryotinia fuckeliana assessed as mycelial growth after 4 days. In kind it is functional, organism-based. Particulars: 96 h.
Assay [8] concerns Botrytis cinerea. Briefly: Growth inhibition of Botryotinia fuckeliana at 0.5 mg/ml after 4 days relative to control. The assay is classed as functional. The conditions noted are these: 96 h, read-out: GI.
Assay [9] concerns Botrytis cinerea. Briefly: Antifungal activity against Botryotinia fuckeliana infected grape assessed as decrease in lesion diameter at 1 to 3 mg/ml applied by dipping 24 hr prior to infection measured after 5 to 7 days at 4 degC relative to untreated-control. The assay is classed as functional, organism-based.
For assay [10], the system named is Botrytis cinerea. In words: Growth inhibition of Botryotinia fuckeliana at 5 mg/ml after 4 days relative to control. The assay is classed as functional. Particulars: 96 h, read-out: GI.
The test system of assay [11] is Botrytis cinerea. Briefly: Antifungal activity against Botryotinia fuckeliana infected grape assessed as decrease in lesion diameter at 1 mg/ml applied by dipping 24 hr prior to infection measured after 4 days at 4 degC relative to untreated-control. In kind it is functional, organism-based.
The subject of assay [12] is Botrytis cinerea. Briefly: Antifungal activity against Botryotinia fuckeliana infected grape assessed as decrease in lesion diameter at 3 mg/ml applied by dipping 24 hr prior to infection measured after 3 days at 4 degC relative to untreated-control. In kind it is functional, organism-based.
Assay [13] deals with Botrytis cinerea. Briefly: Growth inhibition of Botryotinia fuckeliana at 4 mg/ml after 4 days relative to control. Particulars: 96 h, read-out: GI. The assay is classed as functional.
The subject of assay [14] is Botrytis cinerea. In words: Antifungal activity against Botryotinia fuckeliana infected grape assessed as decrease in lesion diameter at 3 mg/ml applied by dipping 24 hr prior to infection measured after 3 days at 24 degC relative to untreated-control. The assay is classed as functional, organism-based.

≈ marks a conversion by molar mass, not a printed value. Calls of active or inactive are those of the source. No cut-off for these calls is given here.

For orientation: EC50 means the concentration at which the effect is half-maximal.

Consider `CSC(=O)c1cccc2nnsc12` [ACIBENZOLAR-S-METHYL], for which the Activity in assay [1] came to 17.94 mm; in [2], 44.72 mm; in [3], 54.26 mm; in [5], 16.99 mm. In [4], the inhibition of growth at 1000 µg/mL was found to be 23.1%. The result in [6], in [9], in assay [11], in assay [12] and in [14] was Active. Besides, the half-maximal effective concentration (EC50) in [7] was 3440 µg/mL (≈ 16.4 mM). Further, the inhibition of growth at 500 µg/mL in [8] came out at 16.3%. The inhibition of growth at 5000 µg/mL in assay [10] was 66.2%. Besides, the inhibition of growth at 4000 µg/mL in assay [13] worked out at 55.6%.

Source of the values: ChEMBL document CHEMBL3045978, “Sensitivity of Botrytis cinerea to chitosan and acibenzolar-S-methyl” (Pest Manag Sci, 2010).
